These antisense oligonucleotides have a phosphorothioate backbone; sugars and methylation of C are not fully specified.
Molecular target: CD44
Details: ASO
Also: test concentration or dose not given here.

Row | Sequence | remaining target (mRNA or protein) (fraction of control)
1 | AAAGGTTGGCGATCAGGA | ≥ 1
2 | AAATCCGATGCTCAGAGC | ≥ 1
3 | AACCCTGGGAAATGTCCT | ≥ 1
4 | AAGCCAAGGCCAAGAGGG | ≥ 1
5 | AAGGCATTGGGCAGGTCT | 0.99
6 | AATGTCCTTAGCTGGTGG | ≥ 1
7 | ACAGCTCCATTGCCACTG | ≥ 1
8 | ACCAGGCCCTATTAACCC | ≥ 1
9 | ACGTGGAATACACCTGCA | ≥ 1
10 | AGAGCTTTCTCCATCTGG | ≥ 1
11 | AGAGGGATGCCAAGATGA | ≥ 1
12 | AGATTCGCAATGAAACAA | ≥ 1
13 | AGCAATGCCCAGGGATTA | ≥ 1
14 | AGCCATCCATAGCACACC | 0.97
15 | AGCCGCTGCTCACGTCAT | ≥ 1
16 | AGGACTGATCCAGGGTTT | 0.83
17 | AGGTCTCAAATCCGATGC | ≥ 1
18 | AGTGGAAAGCAATGCCCA | ≥ 1
19 | ATAGCACACCCGAGGATG | ≥ 1
20 | ATCAGTAGGGTTGCTGGG | ≥ 1
21 | ATCCAGGGACTGTCTTCG | ≥ 1

Row | Sequence | remaining target (mRNA or protein) (fraction of control)
22 | ATCCATAGCACACCCGAG | ≥ 1
23 | CAACGGTTGTTTCTTTCC | ≥ 1
24 | CAAGGTGCTATTGAAAGC | 0.92
25 | CAGGGATTAGGCTATGGA | ≥ 1
26 | CCAACCTCAGTGGAAAGC | ≥ 1
27 | CCACATGCCCTTCTATGA | 0.9
28 | CCATTTCCTGAGACTTGC | ≥ 1
29 | CCCACACCTTCTTCGACT | 0.94
30 | CCTTTGGTGTCTCCCAGA | ≥ 1
31 | CGATCTGCGCCAGGCTCA | 0.72
32 | CGGAGCGAACGGAGGGCG | ≥ 1
33 | CGTCCGAGAGATGCTGTA | 0.52
34 | CGTTGAGTCCACTTGGCT | ≥ 1
35 | CTCAGCGGCACGAGGCAG | 0.91
36 | CTGGACATAGCGGGTGCC | ≥ 1
37 | CTGTCTTCGTCTGGGATG | ≥ 1
38 | CTGTGCTGTCGGTGATCC | ≥ 1
39 | CTTGTTCACCAAATGCAC | ≥ 1
40 | GAAAGCCTTGCAGAGGTC | 0.9
41 | GACGACTCCTTGTTCACC | ≥ 1
42 | GACTGTTGACTGCAATGC | ≥ 1

Row | Sequence | remaining target (mRNA or protein) (fraction of control)
43 | GACTTGCTGGCCTCTCCG | ≥ 1
44 | GATTAGGCTATGGAAGGG | ≥ 1
45 | GCAAGAATCAAAGCCAAG | ≥ 1
46 | GCCATTCTGGAATTTGGG | ≥ 1
47 | GCCTCCAAGTGGAACTGA | 0.99
48 | GCGGCAGGTTATATTCAA | ≥ 1
49 | GCTGCTCCTTTCACTGGA | 0.9
50 | GGCACGAGGCAGAGTCCC | ≥ 1
51 | GGCAGGTCTGTGACTGAT | ≥ 1
52 | GGCCTCTCCGTTGAGTCC | ≥ 1
53 | GGCTTTCTGTCCTCCACA | ≥ 1
54 | GGGCCCTAATTTACAAAG | 0.88
55 | GGTTATGTTTCCAACGGT | ≥ 1
56 | GGTTGGCGATCAGGAATA | ≥ 1
57 | GTCCTCCACAGCTCCATT | ≥ 1
58 | GTCTCCCAGAAGCATCTG | ≥ 1
59 | GTGGAGCTGAAGCATTGA | ≥ 1
60 | GTGGGCAAGGTGCTATTG | ≥ 1
61 | GTGTTGTTTGCTGCACAG | ≥ 1
62 | GTTGTGTTTGCTCCACCT | 0.92
63 | GTTTCCAACGGTTGTTTC | ≥ 1

Row | Sequence | remaining target (mRNA or protein) (fraction of control)
64 | TAAGTGTCCCAGCTCCCT | 0.98
65 | TACACCTGCAAAGCGGCA | ≥ 1
66 | TAGCGGGTGCCATCACGG | ≥ 1
67 | TCAAAGGACTGATCCAGG | ≥ 1
68 | TCATGTCCACATTCTGCA | 0.81
69 | TCCACTTGGCTTTCTGTC | ≥ 1
70 | TCCATCAAAGGCATTGGG | ≥ 1
71 | TCCCAGCTCCCTGTAATG | ≥ 1
72 | TCTCCATCTGGGCCATTG | ≥ 1
73 | TCTTCTGCCCACACCTTC | ≥ 1
74 | TCTTGGTCTCTGGTAGCA | ≥ 1
75 | TGACTGCAATGCAAACTG | ≥ 1
76 | TGAGACTTGCTGGCCTCT | 0.93
77 | TGCAGAGGTCAGCGGCCT | ≥ 1
78 | TGCTATTGAAAGCCTTGC | ≥ 1
79 | TGGGAGGTGTTGTATGTG | ≥ 1
80 | TGGTAGCAGGGATTCTGT | ≥ 1
81 | TTGACTCCCATGTGAGTG | ≥ 1
82 | TTGCTCCACCTTCTTGAC | ≥ 1
83 | TTTCCTCCCAGGGACCAG | ≥ 1
84 | TTTGCTGCACAGATGGAG | ≥ 1

Molecular target: SRA1
Details: ASO

Row | Sequence | remaining target (mRNA or protein) (fraction of control)
85 | GGAACCGAGGATTATGAA | 0.68
86 | GGAGCCAAGTGACAGAAG | 0.86
87 | GGAGCCTTACTTGAAGGA | 0.54
88 | GGATGCTTGTTCAGTCTA | ≥ 1
89 | GGCACCGGAAGGAGATGG | 0.43
90 | GGCCCAGGAGAAGTCTCT | ≥ 1
91 | GGCCTGGGTCTGCAGCCC | 0.94
92 | GGCGTCGGCTGATGTCAT | 0.42
93 | GGGAGCCTTACTTGAAGG | 0.88
94 | GGGTCAGGCCCAGTGGGA | ≥ 1
95 | GGGTCCGCCGGCCTGGGT | ≥ 1
96 | GGTGGTGGTAAGAAGGGA | ≥ 1
97 | GGTGTCCGGTGAGTCTGG | 0.5
98 | GGTTCTTCTCAGCTGTGG | 0.49
99 | GTAGGCAGTAGTCTGACT | 0.42
100 | GTATCTCAAGGGTGATAC | 0.6
101 | GTATGGTATGGTTCTTCT | 0.94
102 | GTCGGCTGATGTCATCAC | ≥ 1
103 | GTCTGCAGCCCGTATGAG | ≥ 1

Row | Sequence | remaining target (mRNA or protein) (fraction of control)
104 | GTGGATGTCATCTGCTGC | ≥ 1
105 | TATGAAGCCTGCTGGAAG | 0.64
106 | TCACATGGTCAACCATGA | 0.93
107 | TCAGCACATCCTCCATCA | 0.97
108 | TCAGTCACATGGTCAACC | 0.5
109 | TCCAAAGGTCTCAGCACA | 0.26
110 | TCTCCAAGGCATAGGAGA | 0.8
111 | TCTGAAAACAGACTCCTC | 0.99
112 | TCTGCTGCGTCCCACCGG | 0.32
113 | TGAAAGCTCTTGCACCAG | 0.64
114 | TGAAGGAGGTGGAGGCCC | ≥ 1
115 | TGAATGGAGAAGGGAGAA | 0.75
116 | TGACAACTTTCCTCCAGC | 0.15
117 | TGACAGAAGGTCTCCAAG | 0.81
118 | TGCTGCGTCCCACCGGTG | 0.27
119 | TGCTGGAAGCCTGGTATG | 0.28
120 | TGGCCACGGCAGTCTTCC | 0.52
121 | TGGTAAGCAGCGAGCGCC | 0.74
122 | TGGTATGGTTCTTCTCAG | 0.58

Row | Sequence | remaining target (mRNA or protein) (fraction of control)
123 | TGTCATCACATACCTGCT | 0.76
124 | TGTGTGGCCACGGCAGTC | 0.47
125 | TGTTCCTGCAGCAGTGCC | 0.39
126 | TTCCAAAGGTCTCAGCAC | 0.49
127 | TTCCAGCCGCGTTCCTTG | ≥ 1
128 | TTCCTGCAGCAGTGCCAG | 0.45
129 | TTCCTTGTTGCCTGCGGA | 0.72
130 | TTCTCATGCTGAAATGAA | 0.74
131 | TTCTGCAATTAATCTTTT | 0.59
132 | TTCTTTACAGGTATTGAC | ≥ 1
133 | TTGGCTGCCTCCTCTGAA | 0.58
134 | TTGGTAAGCAGCGAGCGC | 0.56
135 | TTTAACTCCTACCATCCA | 0.89
136 | TTTACAGGTATTGACAAC | ≥ 1
137 | TTTCACCGCAGAGATGTT | ≥ 1
138 | TTTCTCTTCATTGGCTGC | 0.38
139 | TTTCTGCAATTAATCTTT | ≥ 1
140 | TTTTAACTCCTACCATCC | ≥ 1

Molecular target: TFRC
Details: ASO

Row | Sequence | remaining target (mRNA or protein) (fraction of control)
141 | AAACAAGTCTACCGTTCT | ≥ 1
